Structures are written as SMILES. “Also recorded” adds a separate entry of the source. Read-outs that look alike come from different tables or passages of the source.

Results on 1 molecule are retold here after patent US20220362182A1, “METHODS FOR REVERSING HEPATIC STEATOSIS” (BRIGHTSEED, INC., priority 2020, published 2022).

In assay [1] the target is T1, HNF4α (Mus musculus, UniProt P49698).
T1 construct: from tissue; host or cells: liver of C57BL/6 J DIO male mice
T1 sequence (P49698 1-474): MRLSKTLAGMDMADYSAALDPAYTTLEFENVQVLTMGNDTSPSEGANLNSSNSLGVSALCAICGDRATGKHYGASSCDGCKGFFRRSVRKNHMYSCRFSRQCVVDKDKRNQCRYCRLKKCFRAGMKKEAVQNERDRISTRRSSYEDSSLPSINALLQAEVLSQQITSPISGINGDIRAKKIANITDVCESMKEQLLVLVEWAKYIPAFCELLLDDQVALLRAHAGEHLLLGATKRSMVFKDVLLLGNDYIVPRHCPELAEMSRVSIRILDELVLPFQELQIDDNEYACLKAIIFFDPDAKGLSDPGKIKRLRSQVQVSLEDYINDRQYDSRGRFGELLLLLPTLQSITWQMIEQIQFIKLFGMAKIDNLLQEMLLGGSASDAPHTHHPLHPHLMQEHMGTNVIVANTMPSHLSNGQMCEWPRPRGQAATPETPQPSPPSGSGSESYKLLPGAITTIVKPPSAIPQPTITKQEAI
The experiment in a line: hepatic HNF4α expression in DIO mice. The format is in vivo. The note with it: 200 mg/kg bid IP, 14 days; for hepatic HNF4α protein (nuclear staining): 200 mg/kg. The method, then:
(§1) Quantitative PCR (Q-PCR) from in vitro cell culture experiments used total RNA purified using RNeasy Kits (Qiagen). For liver tissue samples, total RNA was isolated using Trizol (Invitrogen) and prepared for RNAseq (mouse liver DMSO and NCT, N=3). cDNA was amplified using 3 μg of total RNA using qScript cDNA SuperMix (Quanta BioSciences, Beverly, Mass., USA). QPCR analysis was performed using SYBR® Select Master Mix (Applied Biosystems) and ABI 7900HT (Applied Biosystems, Thermo Fisher Scientific). The Ct values of mRNA expression were then normalized to the 18 s rRNA values and are expressed as fold change over samples from mice fed normal chow for in vivo experiments or DMSO controls for cell culture experiments.
For dose response experiments, mice were injected intraperitoneally with 10% DMSO as vehicle control or 4 different doses of NCT (30, 60, 120 and 240 mg/kg of body weight) dissolved in 10% DMSO. Mice received 2 doses per day with a 5 h interval between injections for 3 days. To test the effect of NCT (Sundia MediTech Company, Ltd., Custom synthesis), 200 mg/kg was injected IP bid for 14 days. On day 15, mice received a final dose of NCT followed by IP injection with 3 g/kg dextrose. One h later, blood samples were collected and mice were euthanized using pentobarbital. Total mouse, liver and epididymal fat pad weights were measured. Dissected liver samples were washed in cold PBS, cut into small pieces and distributed for analyses. For RNA isolation and ELISA, liver samples were snap frozen using liquid nitrogen and stored at −80° C. […]
Frozen liver sections were permeabilized using 0.3% Triton-X and incubated in antigen retrieval solution (Antigen retrieval citrate, Biogenex) at sub boiling temperature for 10 min. […] Slides were mounted using fluorescence mounting medium and images were obtained at 40× magnification using an Olympus IX71 fluorescence microscope. Fluorescence intensity of HNF4α-stained nuclei was calculated using MetaMorph TL software (version 7.6.5.0, Olympus).

For assay [2], the system named is SPNS2 mRNA. The experiment in a line: SPNS2 qPCR in T6PNE cells. The format is cell-based, human. On the procedure: as §1
In general terms: Quantitative PCR measures a nucleic acid by following its amplification.

Assay [3] concerns SPNS2 mRNA. Kind of assay: SPNS2 qPCR in mouse liver. The format is in vivo. On the procedure: as §1
Assay [4] relates to dihydroceramides. The experiment in a line: lipidomic analysis of livers from mice injected IP. The format is in vivo, mouse. The note with it: livers from mice injected IP for 2 weeks. On the procedure: Ceramides and dihydroceramides were measured in the UCSD Lipidomics Core Facility as previously described (Quehenberger et al.). Briefly, samples were extracted using the butanol: methanol (BUME) method. The lipid layer was collected and run on a Thermo-Vanquish UPLC (Thermo Scientific) with a Cortecs T3 (C18), 2.1 mm×150 mm; 1.8 uT3 column and a binary solvent system. Mass spectrometry employed a Thermo Q Exactive instrument with MS/MS data dependent acquisition scan mode and LipidSearch software (Thermo Fisher Scientific).

Where [5] appears, read: listed as N-trans-caffeoyltyramine.

In the case of `O=C(/C=C/c1ccc(O)c(O)c1)NCCc1ccc(O)cc1` [NCT, N-trans-caffeoyltyramine], the “hepatic HNF4α mRNA” value in assay [1] was “reversed the loss”. Further, the “hepatic HNF4α protein (nuclear staining)” value was “reversed the loss of HNF4α protein; also recorded: recovery of normal hepatic HNF4α expression” in assay [1] and “reversed that reduction; also recorded: increased the HNF4a staining” in assay [1] (setting [5]). The “SPNS2 expression (mRNA)” value in assay [2] is recorded as “induced SPNS2 expression”; in assay [2] (setting [5]), “induced the expression”. Also, the “SPNS2 expression in mouse liver” value in assay [3] was “did not induce a change in SPNS2 expression; also recorded: not mouse liver”. Further, the “decrease in ceramide/dihydroceramide ratio in liver” value in assay [4] is “evident as well”.
